Measurements published in ChEMBL document CHEMBL1201862, “PubChem BioAssay data set” (2004).
Active and inactive are the calls of the source.

Assays:
Caspase-3 = target: T1, Caspase-3 (Homo sapiens, UniProt P42574); type: functional;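 further: Dose-response selectivity test against caspase-3 for candidate inhibitors of sentrin-specific proteases (SENPs)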
T1 sequence (P42574 whole entry): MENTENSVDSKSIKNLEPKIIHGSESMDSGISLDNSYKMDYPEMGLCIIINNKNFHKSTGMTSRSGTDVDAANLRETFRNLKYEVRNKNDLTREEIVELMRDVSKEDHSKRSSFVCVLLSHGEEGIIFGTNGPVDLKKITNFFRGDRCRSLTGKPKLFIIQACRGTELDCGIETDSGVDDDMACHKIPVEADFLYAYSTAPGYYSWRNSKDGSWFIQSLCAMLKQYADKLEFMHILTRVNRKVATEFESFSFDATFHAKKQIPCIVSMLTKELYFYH

[1] = target: T2, Sentrin-specific protease 7 (Homo sapiens, UniProt Q9BQF6); type: functional;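 further: Luminescence-based dose-response confirmation of ultra-high-throughput screening hits, measuring inhibition of SENP7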
T2 sequence (Q9BQF6 whole entry): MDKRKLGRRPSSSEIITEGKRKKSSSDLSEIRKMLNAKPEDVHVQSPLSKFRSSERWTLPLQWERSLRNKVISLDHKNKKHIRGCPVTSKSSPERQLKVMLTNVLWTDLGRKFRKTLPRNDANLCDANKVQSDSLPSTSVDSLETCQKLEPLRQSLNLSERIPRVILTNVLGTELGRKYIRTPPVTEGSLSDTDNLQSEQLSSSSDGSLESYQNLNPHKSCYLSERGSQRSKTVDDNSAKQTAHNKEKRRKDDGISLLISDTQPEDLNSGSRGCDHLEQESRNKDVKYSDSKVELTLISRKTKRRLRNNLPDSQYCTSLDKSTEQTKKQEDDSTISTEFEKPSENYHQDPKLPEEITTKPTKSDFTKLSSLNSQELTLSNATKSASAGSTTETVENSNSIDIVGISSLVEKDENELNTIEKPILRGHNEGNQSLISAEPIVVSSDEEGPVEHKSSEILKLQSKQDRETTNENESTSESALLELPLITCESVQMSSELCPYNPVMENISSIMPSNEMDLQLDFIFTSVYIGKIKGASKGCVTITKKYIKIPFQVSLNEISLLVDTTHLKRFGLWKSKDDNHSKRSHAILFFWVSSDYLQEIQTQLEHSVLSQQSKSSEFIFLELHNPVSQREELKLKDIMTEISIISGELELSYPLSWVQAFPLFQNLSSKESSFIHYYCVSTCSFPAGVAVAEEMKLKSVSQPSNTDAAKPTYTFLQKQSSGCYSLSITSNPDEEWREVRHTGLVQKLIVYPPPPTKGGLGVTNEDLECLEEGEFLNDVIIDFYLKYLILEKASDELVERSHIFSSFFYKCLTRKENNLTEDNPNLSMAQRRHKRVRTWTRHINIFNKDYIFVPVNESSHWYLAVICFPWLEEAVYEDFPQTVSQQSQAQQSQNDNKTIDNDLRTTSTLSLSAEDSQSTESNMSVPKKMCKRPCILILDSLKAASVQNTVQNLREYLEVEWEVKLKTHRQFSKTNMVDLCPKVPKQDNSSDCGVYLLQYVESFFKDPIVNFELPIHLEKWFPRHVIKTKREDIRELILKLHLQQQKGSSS

[2] = target: T3, Sentrin-specific protease 6 (Homo sapiens, UniProt Q9GZR1); type: functional;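 further: Luminescence-based dose-response confirmatory assay of SENP6 inhibition, following up an ultra-high-throughput screen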
T3 sequence (Q9GZR1 whole entry): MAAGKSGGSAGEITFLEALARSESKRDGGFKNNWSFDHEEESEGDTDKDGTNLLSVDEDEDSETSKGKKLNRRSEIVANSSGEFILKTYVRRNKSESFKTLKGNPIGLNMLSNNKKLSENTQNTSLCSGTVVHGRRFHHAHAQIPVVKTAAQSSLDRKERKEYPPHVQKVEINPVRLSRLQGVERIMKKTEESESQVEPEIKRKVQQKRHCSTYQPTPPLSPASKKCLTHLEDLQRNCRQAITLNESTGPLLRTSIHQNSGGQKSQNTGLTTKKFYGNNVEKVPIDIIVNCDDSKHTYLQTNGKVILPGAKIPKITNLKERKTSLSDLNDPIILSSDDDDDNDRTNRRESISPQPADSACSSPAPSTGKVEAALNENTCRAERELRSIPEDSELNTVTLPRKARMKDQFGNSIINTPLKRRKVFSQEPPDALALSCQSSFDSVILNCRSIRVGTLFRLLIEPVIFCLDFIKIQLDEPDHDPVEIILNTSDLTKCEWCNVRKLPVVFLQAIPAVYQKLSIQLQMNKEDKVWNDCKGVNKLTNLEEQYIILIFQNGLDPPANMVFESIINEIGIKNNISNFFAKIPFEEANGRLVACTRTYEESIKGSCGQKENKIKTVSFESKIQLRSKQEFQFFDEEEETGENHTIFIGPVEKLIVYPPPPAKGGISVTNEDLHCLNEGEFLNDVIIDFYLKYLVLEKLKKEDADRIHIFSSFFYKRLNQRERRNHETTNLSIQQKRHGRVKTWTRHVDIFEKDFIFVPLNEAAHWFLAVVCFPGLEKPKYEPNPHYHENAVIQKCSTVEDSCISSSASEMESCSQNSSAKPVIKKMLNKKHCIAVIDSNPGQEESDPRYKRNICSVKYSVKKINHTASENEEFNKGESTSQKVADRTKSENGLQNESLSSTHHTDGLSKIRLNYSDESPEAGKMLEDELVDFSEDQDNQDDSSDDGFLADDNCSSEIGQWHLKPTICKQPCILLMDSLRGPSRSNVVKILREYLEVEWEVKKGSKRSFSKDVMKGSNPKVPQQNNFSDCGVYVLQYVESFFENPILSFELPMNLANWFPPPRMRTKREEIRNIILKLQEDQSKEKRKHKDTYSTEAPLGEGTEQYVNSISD

[3] = target: T4, Sentrin-specific protease 8 (Homo sapiens, UniProt Q96LD8); type: functional;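 further: luminescence read-out of SENP8 inhibition, dose-response confirmation following an ultra-high-throughput screen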
T4 sequence (Q96LD8 whole entry): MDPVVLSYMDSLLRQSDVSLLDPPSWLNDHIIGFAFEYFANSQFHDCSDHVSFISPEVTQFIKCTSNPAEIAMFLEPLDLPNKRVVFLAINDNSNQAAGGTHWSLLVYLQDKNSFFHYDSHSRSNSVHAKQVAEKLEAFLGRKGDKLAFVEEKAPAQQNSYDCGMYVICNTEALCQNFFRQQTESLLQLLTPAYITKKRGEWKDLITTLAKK

Cytochrome P450 2C9 = Cytochrome P450 2C9 (Homo sapiens, UniProt P11712)
[4] = target: T5, Low molecular weight phosphotyrosine protein phosphatase (Homo sapiens, UniProt P24666); type: functional; conditions: read-out: IC50_Mean;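 further: Dose-response confirmation assay measuring inhibition of LMPTP enzyme activity by fluorescence intensity read-out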
T5 sequence (P24666 whole entry): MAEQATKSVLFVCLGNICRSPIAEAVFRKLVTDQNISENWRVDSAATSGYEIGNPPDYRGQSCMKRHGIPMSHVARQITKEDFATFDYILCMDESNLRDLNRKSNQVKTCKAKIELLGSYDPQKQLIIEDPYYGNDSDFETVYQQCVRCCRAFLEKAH

Escherichia coli = assay: microbe, parasite or virus in culture
Cytochrome P450 1A2 = target: T6, Cytochrome P450 1A2 (Homo sapiens, UniProt P05177);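 further: PubChem cytochrome P450 panel assay, CYP1A2 panel member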
T6 sequence (P05177 whole entry): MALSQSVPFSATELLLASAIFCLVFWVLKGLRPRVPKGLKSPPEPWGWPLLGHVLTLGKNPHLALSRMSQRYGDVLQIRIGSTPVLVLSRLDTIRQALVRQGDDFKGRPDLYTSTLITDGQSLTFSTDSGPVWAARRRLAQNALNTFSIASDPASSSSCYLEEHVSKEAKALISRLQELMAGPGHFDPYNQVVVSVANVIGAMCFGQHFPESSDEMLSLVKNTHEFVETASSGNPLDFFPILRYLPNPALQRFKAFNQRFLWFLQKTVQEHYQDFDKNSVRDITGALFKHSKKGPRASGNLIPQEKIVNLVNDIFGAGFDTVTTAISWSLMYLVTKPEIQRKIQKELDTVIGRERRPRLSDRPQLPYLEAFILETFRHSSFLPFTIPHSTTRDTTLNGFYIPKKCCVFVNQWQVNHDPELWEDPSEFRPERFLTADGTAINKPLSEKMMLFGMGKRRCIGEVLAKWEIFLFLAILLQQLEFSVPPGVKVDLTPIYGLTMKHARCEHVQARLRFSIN

Cytochrome P450 3A4 = Cytochrome P450 3A4 (Homo sapiens, UniProt P08684);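 further: CYP3A4 tested as one member of a cytochrome P450 panel screen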
[5] = insulin promoter down-regulators in MIN6 cells, imaging, high-content screening, mouse beta cells (AID 1628); type: functional
[6] = test system: Streptococcus sp. 'group A'; assay: growth inhibition of control SK(-) GAS strain, dose response, counter-screen for streptokinase expression inhibitor project, luminescence, kanamycin, BacTiterGlo, confirmation (AID 1900); type: functional, organism-based
[7] = cytotoxicity in MIN6 insulinoma cells, dose response, cytotoxicity control, cell-based, mouse insulinoma (AID 2122); type: functional;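 further: confirmatory high-throughput counterscreen run to flag cytotoxic compounds; mouse MIN-6 beta cells carrying an insulin promoter eGFP reporter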
Streptokinase A = target: T7, Streptokinase A (Streptococcus pyogenes serotype M1, UniProt P10520); assay: S. pyogenes streptokinase expression inhibitors, potency, dose response, plasminogen activation absorbance, OD405 (AID 1914); type: functional, Streptococcus pyogenes M1 GAS;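 further: secreted streptokinase activity via plasminogen activation per viability signal from cell pellet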
T7 sequence (P10520 whole entry): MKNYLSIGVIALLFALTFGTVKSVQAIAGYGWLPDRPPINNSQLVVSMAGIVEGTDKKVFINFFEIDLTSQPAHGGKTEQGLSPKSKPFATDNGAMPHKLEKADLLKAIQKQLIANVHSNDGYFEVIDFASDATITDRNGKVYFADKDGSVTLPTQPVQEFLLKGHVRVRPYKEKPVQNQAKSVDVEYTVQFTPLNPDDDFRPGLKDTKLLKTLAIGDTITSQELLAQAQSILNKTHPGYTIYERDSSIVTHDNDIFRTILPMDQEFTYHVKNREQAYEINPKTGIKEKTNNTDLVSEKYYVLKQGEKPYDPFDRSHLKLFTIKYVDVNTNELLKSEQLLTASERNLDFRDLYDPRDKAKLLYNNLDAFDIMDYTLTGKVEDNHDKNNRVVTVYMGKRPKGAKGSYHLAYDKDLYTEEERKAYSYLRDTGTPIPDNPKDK

Streptococcus = assay: Group A Streptococcus viability loss, dose response, counter-screen for streptokinase expression inhibitor project, luminescence, BacTiterGlo (AID 1915); type: functional, organism-based;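 further: potency for reduction of bacterial viability or growth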
INS1 = assay: beta cell apoptosis inhibitors, cytokine rescue, dose response, luminescence, retest (AID 449756); type: functional, cell-based; conditions: Rattus norvegicus;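 further: cell death triggered by IL-1 beta plus TNF-alpha plus IFN-gamma mixture; protective hits raise ATP signal compared with cytokine alone wells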
Vero [8] = assay: cells; type: functional; conditions: Chlorocebus sabaeus
[9] = Shn3 3'UTR reporter inhibitors, dose response, cell-based, Clone20 osteoblasts, firefly luciferase, cherry-picked (AID 624132); type: functional;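 further: firefly luciferase luminescence from reporter carrying the Shn3 3'UTR in osteoblasts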
[10] = HepG2 cell cytotoxicity, dose response, cytotoxicity control for Shn3 inhibitor project, CellTiter-Glo, cherry-picked (AID 624134); type: functional, cell-based
[11] = control 3'UTR Renilla luciferase suppression, dose response, counter-screen for Shn3 inhibitor project, cell-based, Clone20-Shn3RL, cherry-picked (AID 624133); type: functional
[12] = HEp-2 cell cytotoxicity, dose response, cytotoxicity control for RSV inhibitor project, HTS (AID 2410); type: functional; conditions: human respiratory syncytial virus
Vero [13] = assay: cells; type: functional, cell-based; conditions: Chlorocebus sabaeus
Cytochrome P450 2D6 = Cytochrome P450 2D6 (Homo sapiens, UniProt P10635);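 further: CYP2D6 member of a cytochrome P450 panel assay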
CAAX prenyl protease 2 = target: T8, CAAX prenyl protease 2 (Homo sapiens, UniProt Q9Y256); assay: human Rce1 protease inhibitors, dose response, biochemical, yeast membranes, quenched-peptide fluorescence, cherry-pick (AID 588849)
T8 sequence (Q9Y256 whole entry): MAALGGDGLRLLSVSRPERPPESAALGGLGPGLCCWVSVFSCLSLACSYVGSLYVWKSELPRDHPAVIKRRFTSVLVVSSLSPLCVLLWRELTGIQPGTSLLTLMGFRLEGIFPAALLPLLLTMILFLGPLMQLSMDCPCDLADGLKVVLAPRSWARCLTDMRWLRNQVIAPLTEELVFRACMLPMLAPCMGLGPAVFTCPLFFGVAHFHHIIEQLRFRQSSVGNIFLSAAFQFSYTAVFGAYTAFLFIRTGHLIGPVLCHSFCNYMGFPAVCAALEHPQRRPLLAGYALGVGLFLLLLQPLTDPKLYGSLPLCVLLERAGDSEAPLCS

Sequence of Cytochrome P450 3A4 (P08684 whole entry): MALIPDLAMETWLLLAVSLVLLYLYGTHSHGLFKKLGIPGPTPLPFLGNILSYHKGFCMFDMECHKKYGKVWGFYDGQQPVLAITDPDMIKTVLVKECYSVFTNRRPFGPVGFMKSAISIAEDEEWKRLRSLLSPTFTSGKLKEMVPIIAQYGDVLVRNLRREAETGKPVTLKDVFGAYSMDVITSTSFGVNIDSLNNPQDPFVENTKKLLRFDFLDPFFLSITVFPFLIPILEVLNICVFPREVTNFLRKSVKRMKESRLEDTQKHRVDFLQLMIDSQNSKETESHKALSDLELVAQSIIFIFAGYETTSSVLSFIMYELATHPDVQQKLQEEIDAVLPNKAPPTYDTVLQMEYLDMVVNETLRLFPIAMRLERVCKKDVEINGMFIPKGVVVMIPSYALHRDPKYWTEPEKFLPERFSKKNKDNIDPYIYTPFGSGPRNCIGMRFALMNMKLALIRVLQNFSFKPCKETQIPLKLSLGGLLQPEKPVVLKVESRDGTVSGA
Sequence of Cytochrome P450 2C9 (P11712 whole entry): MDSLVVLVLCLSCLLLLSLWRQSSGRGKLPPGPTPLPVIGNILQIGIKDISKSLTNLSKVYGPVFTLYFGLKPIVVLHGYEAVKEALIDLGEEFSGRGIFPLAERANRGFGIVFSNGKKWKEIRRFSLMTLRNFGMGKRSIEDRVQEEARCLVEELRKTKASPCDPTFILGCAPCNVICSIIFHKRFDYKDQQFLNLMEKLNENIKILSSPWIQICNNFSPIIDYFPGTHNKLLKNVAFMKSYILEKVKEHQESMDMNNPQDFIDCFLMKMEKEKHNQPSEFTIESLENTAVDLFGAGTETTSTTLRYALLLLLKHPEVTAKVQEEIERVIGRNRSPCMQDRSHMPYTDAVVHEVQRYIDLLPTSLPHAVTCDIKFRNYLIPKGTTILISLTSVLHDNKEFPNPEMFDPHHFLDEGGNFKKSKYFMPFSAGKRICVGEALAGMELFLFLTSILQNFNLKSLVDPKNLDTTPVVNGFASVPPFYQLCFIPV
Sequence of Cytochrome P450 2D6 (P10635 whole entry): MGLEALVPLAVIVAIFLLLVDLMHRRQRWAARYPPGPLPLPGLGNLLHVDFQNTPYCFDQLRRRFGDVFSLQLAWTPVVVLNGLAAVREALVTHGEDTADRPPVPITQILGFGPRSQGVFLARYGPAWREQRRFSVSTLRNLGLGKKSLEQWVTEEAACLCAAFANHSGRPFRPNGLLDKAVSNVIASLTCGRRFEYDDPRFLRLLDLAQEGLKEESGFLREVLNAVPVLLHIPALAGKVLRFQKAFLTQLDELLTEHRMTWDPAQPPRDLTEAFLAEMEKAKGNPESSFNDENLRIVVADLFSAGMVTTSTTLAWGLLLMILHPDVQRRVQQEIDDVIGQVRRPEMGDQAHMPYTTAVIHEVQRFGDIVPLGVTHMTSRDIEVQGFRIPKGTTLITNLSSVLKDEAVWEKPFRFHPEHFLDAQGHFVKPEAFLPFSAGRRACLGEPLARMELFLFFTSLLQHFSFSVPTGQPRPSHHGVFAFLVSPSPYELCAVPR

For `NC(=O)c1ccc(-c2ncc(-c3ccccc3)o2)cc1`, the IC50 (Caspase-3) was 13.1 µM (active), the IC50 [1] was 6.11 µM (active) and the IC50 [2] was 33.9 µM (active). The IC50 [3] was 51.7 µM (active) and the AC50 (Cytochrome P450 2C9) was 2.51 µM (inconclusive).
In the case of `CCn1cc(C(=O)O)c(=O)c2cc(F)c(N3CCN(C(=S)NC(=O)c4ccc(OC)cc4)CC3)cc21`, the IC50 [4] is reported as 7.26 µM (active) and the AC50 (Escherichia coli) is reported as 8.97 µM (active).
With `O=C(c1cnccn1)N1CCC2(CC1)CCN(C(c1ccccc1)c1ccccc1)CC2` the AC50 (Cytochrome P450 1A2) was 10 µM (inconclusive) and the AC50 (Cytochrome P450 3A4) was “inconclusive”.
For `Cn1cccc1C(=O)N1CCC2(CCN(Cc3nccs3)CC2)CC1`, the AC50 (Cytochrome P450 3A4) was “inconclusive”.
In the case of `Cc1ccn(C(=O)c2ccc(NC(=O)C3CC3)cc2)n1`, the AC50 (Escherichia coli) is reported as 22.3 µM (active).
For `O=C(COC(=O)c1ccc([N+](=O)[O-])s1)NCc1ccccc1`, the IC50 (Caspase-3) was 23.4 µM (active), the IC50 [1] was 19.1 µM (active) and the IC50 [2] was 12.8 µM (active). The IC50 [3] was 12.9 µM (active).
With `CCn1cnc2sc(-c3ccccc3)cc2c1=O` the IC50 (Caspase-3) was 12.5 µM (active), the IC50 [1] was 9.66 µM (active) and the IC50 [2] was 32.2 µM (active). The IC50 [3] was 43.8 µM (active).
In the case of `CC1=NN(c2nc3ccccc3[nH]2)C(=O)C1Cc1ccccc1` (centres undefined), the IC50 [5] is reported as 1.53 µM (active), the EC50 [6] is reported as 1.17 µM (active) and the IC50 [7] is reported as 1.43 µM (active). The EC50 (Streptokinase A) was > 150 µM (not active), the EC50 (Streptococcus) was > 150 µM (not active) and the AC50 (INS1) was 1.43 µM (active). The CC50 (Vero [8]) was 2.92 µM (active), the AC50 [9] was 4.11 µM (active) and the AC50 [10] was > 70 µM (inactive). For the same molecule, the AC50 [11] was 2.6 µM (active).
With `Cc1cccc(NC(=O)CSc2nc3ccccc3nc2N2CCCCC2)c1` the CC50 [12] was 10.3 µM (active), the IC50 (Vero [13]) was 9.16 µM (active) and the CC50 (Vero [8]) was > 25 µM (active). For the same molecule, the IC50 (cells) was 9 µM (active).
For `O=C(Oc1ccccc1)N1CCC2(CCN(Cc3ccccc3)CC2)CC1`, the AC50 (Cytochrome P450 2D6) was 39.8 µM (inconclusive) and the AC50 (Cytochrome P450 3A4) was “inconclusive”.
In the case of `CC(=O)/C(C#N)=C1\NC(=O)C(Cc2ccccc2)S1` (centres undefined), the CC50 [12] is reported as 14.4 µM (active), the IC50 (Vero [13]) is reported as 9.17 µM (active) and the IC50 (cells) is reported as 5.09 µM (active).
With `COC(C/C=C/[C@@H](O)[C@H](C)OCc1ccccc1)OC` the AC50 (CAAX prenyl protease 2) was 16.5 µM (active).
